In PubChem BioAssay AID248 (DTP/NCI, 2004):
Several values for one entry are separate records, joined by “and”; a condition that tells them apart may be missing. Equal values may be shown once. Toxic doses and inconclusive results are not listed. No stated cut-off is given here; in the data, active means T/C of 150% or more; inactive means T/C below 125%.

System: L1210 leukemia ip in BDF1 mice, survival T/C
Assay: NCI In Vivo Anticancer Drug Screen. Data for tumor model L1210 Leukemia (intraperitoneal) in B6D2F1 (BDF1) mice
Conditions: endpoint: mean survival time, higher = longer survival
Procedure, shortened: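 Tumor was transplanted into mice, which were then dosed with test compound or vehicle alone. Survival was recorded for each group, and the treated figure was expressed relative to the control figure.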

[1] = dose: 50.0 mg/kg/injection, schedule: Q01DX009 (ip), vehicle: saline with Tween-80
[2] = dose: 100.0 mg/kg/injection, schedule: Q01DX009 (ip), vehicle: saline with Tween-80
[3] = dose: 100.0 mg/kg/injection, schedule: Q01DX001 (ip), vehicle: carboxymethylcellulose (CMC)
[4] = dose: 200.0 mg/kg/injection, schedule: Q01DX001 (ip), vehicle: carboxymethylcellulose (CMC)
[5] = dose: 100.0 mg/kg/injection, schedule: Q01DX009 (ip), vehicle: gum acacia
[6] = dose: 200.0 mg/kg/injection, schedule: Q01DX009 (ip), vehicle: saline with Tween-80
[7] = dose: 400.0 mg/kg/injection, schedule: Q01DX009 (ip), vehicle: saline with Tween-80
[8] = dose: 100.0 mg/kg/injection, schedule: Q01DX009 (ip), vehicle: Klucel (hydroxypropylcellulose) (HPC)
[9] = dose: 100.0 mg/kg/injection, schedule: Q04DX003 (ip), vehicle: Klucel (hydroxypropylcellulose) (HPC)
[10] = dose: 200.0 mg/kg/injection, schedule: Q01DX009 (ip), vehicle: Klucel (hydroxypropylcellulose) (HPC)
[11] = dose: 200.0 mg/kg/injection, schedule: Q04DX003 (ip), vehicle: Klucel (hydroxypropylcellulose) (HPC)
[12] = dose: 400.0 mg/kg/injection, schedule: Q01DX009 (ip), vehicle: Klucel (hydroxypropylcellulose) (HPC)
[13] = dose: 400.0 mg/kg/injection, schedule: Q04DX003 (ip), vehicle: Klucel (hydroxypropylcellulose) (HPC)
[14] = dose: 100.0 mg/kg/injection, schedule: Q01DX001 (ip), vehicle: saline
[15] = dose: 400.0 mg/kg/injection, schedule: Q01DX001 (ip), vehicle: carboxymethylcellulose (CMC)
[16] = dose: 100.0 mg/kg/injection, schedule: Q04DX003 (ip), vehicle: saline with Tween-80
[17] = dose: 200.0 mg/kg/injection, schedule: Q04DX003 (ip), vehicle: saline with Tween-80
[18] = dose: 400.0 mg/kg/injection, schedule: Q04DX003 (ip), vehicle: saline with Tween-80
[19] = dose: 100.0 mg/kg/injection, schedule: Q04DX003 (ip), vehicle: saline

Measured: T/C

CC(C)(C)N1CCCC1
inactive: dose: 25.0 mg/kg/injection, schedule: Q01DX009 (ip), vehicle: saline with Tween-80 96 % of control | [1] 91 % of control | [2] 88 % of control

COc1cccc(/C=N/Nc2nnc(N/N=C/c3cccc(OC)c3)c3ccccc23)c1
inactive: dose: 50.0 mg/kg/injection, schedule: Q01DX001 (ip), vehicle: carboxymethylcellulose (CMC) 101 % of control | [3] 107 % of control | [4] 103 % of control

CSc1ccc(NC(=O)Oc2ccccc2C(=O)OCc2ccccc2)cc1
inactive: [5] 95 % of control | dose: 200.0 mg/kg/injection, schedule: Q01DX009 (ip), vehicle: gum acacia 100 % of control | dose: 400.0 mg/kg/injection, schedule: Q01DX009 (ip), vehicle: gum acacia 102 % of control

COC(=O)/C=C/N(Cc1ccccc1)Cc1ccccc1
inactive: [2] 103 % of control | [6] 95 % of control | [7] 91 % of control

CCOC(=O)c1cnc(SC)nc1Oc1ccccc1F
inactive: [8] 105 % of control | [9] 96 % of control | [10] 96 % of control | [11] 119 % of control | [12] 97 % of control | [13] 91 % of control

NC1CCS(=O)(=O)C1 (stereo not drawn)
inactive: [14] 95 % of control | dose: 200.0 mg/kg/injection, schedule: Q01DX001 (ip), vehicle: saline 98 % of control | dose: 400.0 mg/kg/injection, schedule: Q01DX001 (ip), vehicle: saline 101 % of control

O=C1OCCN1C(=O)c1ccc(Cl)c(Cl)c1
inactive: dose: 25.0 mg/kg/injection, schedule: Q01DX007 (ip), vehicle: Klucel (hydroxypropylcellulose) (HPC) 97 % of control | dose: 50.0 mg/kg/injection, schedule: Q01DX007 (ip), vehicle: Klucel (hydroxypropylcellulose) (HPC) 95 % of control | dose: 100.0 mg/kg/injection, schedule: Q01DX001 (ip), vehicle: Klucel (hydroxypropylcellulose) (HPC) 100 % of control | dose: 100.0 mg/kg/injection, schedule: Q01DX007 (ip), vehicle: Klucel (hydroxypropylcellulose) (HPC) 100 % of control | [8] 94 % of control | [9] 95 % of control | dose: 200.0 mg/kg/injection, schedule: Q01DX001 (ip), vehicle: Klucel (hydroxypropylcellulose) (HPC) 94 % of control | [11] 100 % of control | dose: 400.0 mg/kg/injection, schedule: Q01DX001 (ip), vehicle: Klucel (hydroxypropylcellulose) (HPC) 96 % of control | [12] 87 % of control | [13] 100 % of control

CN(C)Cc1ccc2ccccc2c1C(O)(c1ccccc1)c1ccccc1
inactive: [3] 96 % of control | [4] 98 % of control | [15] 96 % of control

CCOc1ccc(/C=N/NC(C)=O)cc1OC
inactive: [1] 95 % of control | [2] 101 % of control

CC(=O)Oc1ccc(OC(C)=O)c2c1C(=O)CCCC2=O
inactive: [2] 101 % of control | [16] 91 % of control | [6] 93 % of control | [17] 91 % of control | [7] 96 % of control | [18] 96 % of control

CC(=O)/C=C/c1ccc2c(c1)OCO2
inactive: dose: 25.0 mg/kg/injection, schedule: Q01DX009 (ip), vehicle: saline 105 % of control | dose: 50.0 mg/kg/injection, schedule: Q01DX009 (ip), vehicle: saline 96 % of control | dose: 100.0 mg/kg/injection, schedule: Q01DX009 (ip), vehicle: saline 110 % of control | dose: 200.0 mg/kg/injection, schedule: Q01DX009 (ip), vehicle: saline 94 % of control | dose: 400.0 mg/kg/injection, schedule: Q01DX009 (ip), vehicle: saline 102 % of control

CCc1ccc2c(OC(C)=O)c3ccccc3c(OC(C)=O)c2c1
inactive: dose: 100.0 mg/kg/injection, schedule: Q01DX001 (ip), vehicle: saline with Tween-80 95 % of control | dose: 200.0 mg/kg/injection, schedule: Q01DX001 (ip), vehicle: saline with Tween-80 95 % of control | dose: 400.0 mg/kg/injection, schedule: Q01DX001 (ip), vehicle: saline with Tween-80 93 % of control

O=C(Nc1ccc(F)cc1)Nc1ccc(Nc2ccccc2)cc1
inactive: [3] 91 % of control | dose: 100.0 mg/kg/injection, schedule: Q01DX009 (ip), vehicle: carboxymethylcellulose (CMC) 97 % of control | dose: 100.0 mg/kg/injection, schedule: Q04DX002 (ip), vehicle: carboxymethylcellulose (CMC) 93 % of control and 86 % of control | dose: 100.0 mg/kg/injection, schedule: Q04DX003 (ip), vehicle: carboxymethylcellulose (CMC) 88 % of control | [4] 91 % of control | dose: 200.0 mg/kg/injection, schedule: Q01DX009 (ip), vehicle: carboxymethylcellulose (CMC) 87 % of control | dose: 200.0 mg/kg/injection, schedule: Q04DX002 (ip), vehicle: carboxymethylcellulose (CMC) 98 % of control and 86 % of control | dose: 200.0 mg/kg/injection, schedule: Q04DX003 (ip), vehicle: carboxymethylcellulose (CMC) 93 % of control | [15] 91 % of control | dose: 400.0 mg/kg/injection, schedule: Q01DX009 (ip), vehicle: carboxymethylcellulose (CMC) 92 % of control and 87 % of control | dose: 400.0 mg/kg/injection, schedule: Q04DX002 (ip), vehicle: carboxymethylcellulose (CMC) 88 % of control | dose: 400.0 mg/kg/injection, schedule: Q04DX003 (ip), vehicle: carboxymethylcellulose (CMC) 88 % of control

COc1ccc(C)cc1NC(=O)C1CC1
inactive: [8] 103 % of control | [10] 113 % of control | [12] 104 % of control

CN(C)CCNc1cc([N+](=O)[O-])ccc1[N+](=O)[O-]
inactive: [14] 105 % of control

Cc1cc(N)ccc1/C=C/C(=O)O
inactive: [19] 97 % of control | dose: 200.0 mg/kg/injection, schedule: Q04DX003 (ip), vehicle: saline 98 % of control | dose: 400.0 mg/kg/injection, schedule: Q04DX003 (ip), vehicle: saline 93 % of control

CC(C)N(Cl)S(C)(=O)=O
inactive: [19] 89 % of control

COc1ccccc1C=O
inactive: [8] 90 % of control | [10] 90 % of control | [12] 106 % of control

COc1ccc(/C=C(/C(=O)c2ccc(O)cc2)c2ccccc2)cc1
inactive: [3] 87 % of control | [4] 89 % of control | [15] 87 % of control

O=C(Nc1cccc(Cl)c1)OCCOCCOC(=O)Nc1cccc(Cl)c1
inactive: [9] 93 % of control and 104 % of control | [11] 101 % of control and 106 % of control | [13] 97 % of control and 98 % of control

OC(Cc1ccncc1)(c1ccccc1)c1ccccc1
inactive: [16] 88 % of control | [17] 88 % of control | [18] 109 % of control

Cc1ccc(C(=O)/C=C\c2ccc(Cl)c(Cl)c2)cc1
inactive: dose: 100.0 mg/kg/injection, schedule: Q04DX002 (ip), vehicle: Klucel (hydroxypropylcellulose) (HPC) 92 % of control | dose: 200.0 mg/kg/injection, schedule: Q04DX002 (ip), vehicle: Klucel (hydroxypropylcellulose) (HPC) 106 % of control | dose: 400.0 mg/kg/injection, schedule: Q04DX002 (ip), vehicle: Klucel (hydroxypropylcellulose) (HPC) 95 % of control

CO[C@H]1/C=C/O[C@@]2(C)Oc3c(C)c(O)c4c(O)c(c(/C=N/N5CCNCC5)c(O)c4c3C2=O)NC(=O)/C(C)=C\C=C\[C@H](C)[C@H](O)[C@@H](C)[C@@H](O)[C@@H](C)C(OC(C)=O)[C@@H]1C (stereo partly drawn)
inactive: dose: 25.0 mg/kg/injection, schedule: Q01DX001 (ip), vehicle: water 98 % of control | dose: 25.0 mg/kg/injection, schedule: Q01DX009 (ip), vehicle: Klucel (hydroxypropylcellulose) (HPC) 100 % of control | dose: 50.0 mg/kg/injection, schedule: Q01DX001 (ip), vehicle: water 102 % of control | dose: 50.0 mg/kg/injection, schedule: Q01DX009 (ip), vehicle: Klucel (hydroxypropylcellulose) (HPC) 94 % of control | dose: 100.0 mg/kg/injection, schedule: Q01DX001 (ip), vehicle: water 101 % of control | [8] 94 % of control | dose: 200.0 mg/kg/injection, schedule: Q01DX001 (ip), vehicle: water 106 % of control | [10] 100 % of control | dose: 400.0 mg/kg/injection, schedule: Q01DX001 (ip), vehicle: water 102 % of control

Nc1ccc(Cc2ccc(N)cc2)cc1
inactive: dose: 25.0 mg/kg/injection, schedule: Q01DX009 (ip), vehicle: gum acacia 95 % of control | dose: 50.0 mg/kg/injection, schedule: Q01DX009 (ip), vehicle: gum acacia 105 % of control | [5] 105 % of control and 112 % of control
